Assay results taken from patent US20090232909A1, “Method for determining physiological effects of hemoglobin” (priority 1999, published 2009).
Entries after “also recorded” stand apart in the source; their conditions may differ.

Test system: intact human erythrocytes
Experiment: Distribution of NO groups in membrane and cytosolic fractions of RBCs exposed to NO
Type: cell-based
Conditions: 0.1 mM DIDS before NO, NO:heme 1:250
Protocol: RBCs derived from fresh venous blood and suspended in oxygen-purged phosphate-buffered saline (PBS) were exposed in gas-tight vials to NO, added as aliquots of oxygen-purged NO-saturated PBS to yield the specified NO:heme ratios based on spectrophotometric assessment of heme content. Exposure to NO was for 5 mins followed by rinses in PBS at 21% O2. RBCs were lysed in 10 mM MOPS, 0.1 mM DTPA, pH 7, followed by centrifugation at 20,000×g for 10 mins to produce membrane and cytosolic fractions, which were solubilized in 1% TX-100. Quantification of NO groups was by photolysis/chemiluminescence (McMahon, T. J. & Stamler, J. S., Meth. Enzymol. 301:99-114, 1999). SNO content was measured as NO removed by treating sample aliquots for 5 mins with HgCl2 at 5-fold molar excess over estimated thiol content (Gow, A. J. & Stamler, J. S., Nature 391:169-173, 1998; Gow, A. J. et al., Proc. Natl. Acad. Sci. USA 96:9027-9032, 1999; McMahon, T. J. & Stamler, J. S., Meth. Enzymol. 301:99-114, 1999). […]
Immunoprecipitation was carried out by incubation of TX-100 or NP-40 extracts with antibodies followed by protein G-Sepharose. […] Binding of SNO-Hb to IOVs was assessed in 10 mM MOPS buffer, pH 7, at room temperature and 21% O2. Incubation was for 15 mins before IOVs were solubilized in 1% TX-100, and heme content was assessed spectrophotometrically. […]

O=S(=O)(O)c1cc(N=C=S)ccc1C=Cc1ccc(N=C=S)cc1S(=O)(=O)O [DIDS, 4,4′-diisothiocyanatostilbene-2,2′-disulfonic acid]
effect on SNO in the membrane fraction: greatly decreased; also recorded: substantially decreases
effect on net formation of NO-liganded Hb (total NO incorporated by RBCs): did not reduce; also recorded: does not reduce
